Measured values taken from patent US20160058829A1, “ANTI-FIBROTIC PEPTIDES AND THEIR USE IN METHODS FOR TREATING DISEASES AND DISORDERS CHARACTERIZED BY FIBROSIS” (Thrasos Innovation, Inc., priority 2011, published 2016).
Positions of bridges follow the written chain, without caps; N, C: chain ends.

Assays:
[1] = test system: Alk-3 deleted mice and littermate control mice, IRI; experiment: IRI in Alk-3 deleted (γGT-Cre; Alk3 flox/flox) and control mice; type: in vivo; settings: for renal injury (tubular necrosis), IRI: THR-123 orally 5 mg/kg/day
Method: FIG. 76A-FIG. 76T THR-123 acts on tubule Alk3 as a receptor in kidney disease models. FIG. 76A-FIG. 76D, The effect of THR-123 on the IRI model kidney injury in Alk3^flox/flox and […]GTCre; Alk3^flox/flox mice. After ischemia reperfusion injury the mice were given THR-123 orally (5 mg/kg/day) till the day of sacrifice. FIG. 76A-FIG. 76C, the representative H&E staining picture of indicated group of mice are shown. FIG. 76D. Percentage renal tubular necrosis in IRI. Ten fields in each group were analyzed. Data are shown as mean±s.e.m. in the graph. FIG. 76E-FIG. 76T, The effect of THR-123 on the NTN model kidney injury in Alk3^flox/flox and gGTCre; Alk3^flox/flox mice. Six weeks after NTN was introduced in the indicated groups of mice, mice were treated with PBS or THR-123 orally. FIG. 76E-FIG. 76H, the representative MTS staining picture of indicated group of mice are shown. FIG. 76I, Morphometric analyses from 9 weeks of NTN models in indicated groups. FIG. 76J-FIG. 76N, Macrophage accumulation analysis in the kidney of NTN model in Alk3^flox/flox and gGTCre; Alk3^flox/flox mice. FIG. 76J-FIG. 76M, Mac-1 immunofluorescence study of indicated groups of mice. FIG. 76N, The number of macrophages per field of view (×400 magnification) was assessed by counting positively labeled cells in 5 random fields of view per slide, with 5 slides per experimental group. Data are shown as mean±s.e.m. in the graph. FIG. 76O-FIG. 76S, EMT analysis, FIG. 76O-FIG. 76R, E-cadherin/FSP1 immunolabeling of kidney in NTN-induced Alk3^flox/flox and GTCre; Alk3^flox/flox mice treated with either PBS or THR-123. FIG. 76S. Percent of E-cadherin/FSP1 double positive tubule. 500 tubules per slide, 5 slides per experimental group were analyzed. Data are expressed as mean±s.e.m. in the graph. FIG. 76T, Blood urea nitrogen measurement in 6 and 9 weeks of NTN in indicated groups of mice (all n=4).
Ischemia reperfusion injury (IRI) was induced by clamping of the left renal pedicle for 25 minutes. After ischemia reperfusion injury the mice were given THR-123 orally (5 mg/kg/day) or PBS till the day of sacrifice. FIG. 77A-FIG. 77C. Mac-1 immunofluorescence studies in the indicated groups. FIG. 77D. The number of macrophages per field of view (×400 magnification) was assessed by counting positively labeled cells in 5 random fields of view per slide, with 5 slides per experimental group.
Ischemia reperfusion injury (IRI) was induced by clamping of the left renal pedicle for 25 minutes. After ischemia reperfusion injury the mice were given THR-123 orally (5 mg/kg/day) or PBS till the day of sacrifice. FIG. 78A-FIG. 78C. Tubule cell apoptosis was analyzed in frozen kidney sections of indicated groups of animals by TUNEL staining. FIG. 78D. Quantification of TUNEL positive tubule cells. The number of TUNEL positive tubules per field of view (×200 magnification) was assessed by counting positively labeled cells in 5 random fields of view per slide, with 5 slides per experimental group.
THR-123 binds to Alk-3 receptor and induced actions that mimic BMP7 (vide supra). […] To functionally validate the target of THR-123 in exerting such reno-protective activity in mice, the efficacy of THR-123 in the Alk-3 deleted mice subjected to renal injury was tested (FIG. 42 K). The Alk-3 deleted mice and their littermate (control) mice were subjected to IRI.
Alk-3 flox mice are provided by Dr. Yuji Mishina, National Institutes of Health with material transfer agreements. γGT-Cre mice are provided from Dr. Eric Neilson, Vanderbilt University Medical Center. NTN is induced by the method described above.

[2] = test system: mice with ischemia reperfusion injury; experiment: Ischemia reperfusion injury (IRI) in mice; type: in vivo
Method: FIG. 55A-FIG. 55D The effect of THR-123 on acute tubular damage induced by ischemia reperfusion injury. Ischemia reperfusion injury (IRI) was induced by the clamping of the left renal pedicle for 25 minutes. After ischemia reperfusion injury the mice were given THR-123 orally (5 mg/kg/day) or PBS till the day of sacrifice. […] Arrows indicate necrotic tubules. FIG. 55B. […] FIG. 55C. […] Ten fields in each group were analyzed. FIG. 55D. Blood urea nitrogen estimated by quantichrome colorimetric urea assay at day 7 IRI. No difference in the all groups. PBS group (n=5) and THR-123-treated group (n=4) are analyzed. Data are shown as mean±s.e.m. in the graph.
7B16 mice are used in this study. Mice are anesthetized with the mixture of ketamine and xylazine and the left renal pedicle clamped for 25 minutes. At same day after surgery, THR-123 (p.o. 5 mg/Kg/day) or vehicle treatments are started. At 7 days after surgery, mice are sacrificed.

“(H)-CYFDDSSNVLCKKYRS-(OH) (H-CYFDDSSNVLCKKYRS-OH; disulfide 1-11; SMILES CC(C)C[C@@H]1NC(=O)[C@H](C(C)C)NC(=O)[C@H](CC(N)=O)NC(=O)[C@H](CO)NC(=O)[C@H](CO)NC(=O)[C@H](CC(=O)O)NC(=O)[C@H](CC(=O)O)NC(=O)[C@H](Cc2ccccc2)NC(=O)[C@H](Cc2ccc(O)cc2)NC(=O)[C@@H](N)CSSC[C@@H](C(=O)N[C@@H](CCCCN)C(=O)N[C@@H](CCCCN)C(=O)N[C@@H](Cc2ccc(O)cc2)C(=O)N[C@@H](CCCNC(=N)N)C(=O)N[C@@H](CO)C(=O)O)NC1=O) [SEQ ID NO: 1]” was tested, and the “macrophage accumulation, IRI” value ([1]; Alk-3 deleted mice) was “does not inhibit macrophage accumulation”, the “tubular apoptosis, IRI” value ([1]; Alk-3 deleted mice) was “does not inhibit apoptosis” and the “renal injury (tubular necrosis), IRI” value ([1]; Alk-3 deleted mice) was “does not exhibit therapeutic effect”. For the same substance, the “macrophage accumulation, IRI” value ([1]; control mice) was “reduction in macrophage accumulation”, the “tubular apoptosis, IRI” value ([1]; control mice) was “decreased tubular apoptosis” and the “renal injury (tubular necrosis), IRI” value ([1]; control mice) was “inhibited renal injury”. For the same substance, the “blood urea nitrogen at day 7 IRI” value ([2]; THR-123 orally 5 mg/kg/day versus PBS) was “No difference” and the “renal tubular necrosis / tubular damage” value ([2]; THR-123 orally 5 mg/kg/day, versus PBS, day 7) was “significantly less tubular damage”.
